Data set [1] can be described thus: Expected steady state exposure of sintilimab 200 mg Q3W. The format is in vivo. The procedure:
In some embodiments of the present application, sintilimab is administered at a single dose of 200 mg by intravenous infusion, once every 3 weeks, and every 3 weeks is a treatment cycle.
The selection of the administration mode of sintilimab in this study was mainly based on the data of safety and exposure (concentration)-response (PD-1 receptor occupancy) relationship in the currently completed preliminary studies, combined with the preclinical in vitro/in vivo efficacy and related comparison data of similar drugs.

Data set [2] relates to advanced NSCLC. The settings on record: phase 3, Chinese patients; cited from earlier work.
For data set [3] the following is noted: phase 2 clinical trial; cited from earlier work.

Consider “sintilimab: anti-PD-1 human IgG4 monoclonal antibody; heavy chain SEQ ID NO: 10, light chain SEQ ID NO: 9; antibody D of CN108473977A”, for which the “time of continuous administration to reach steady state” value in data set [1] (200 mg Q3W (4 times)) came out at 84 days. In data set [1] (200 mg Q3W continuously for 84 days (4 times)), the “mean steady state trough concentration” value is on record as “about 26 μg/mL”.

In the case of `COc1cc2c(Oc3ccc4[nH]c(C)cc4c3F)ccnc2cc1OCC1(N)CC1` [anlotinib, 1-[[[4-(4-fluoro-2-methyl-1H-indol-5-yl)oxy-6-methoxyquinolin-7-yl]oxy]methyl]cyclopropylamine], in data set [2], the overall survival entry is recorded as “prolonged”, the progression-free survival result is “prolonged” and the tolerability result is listed as “well tolerated”. In data set [3], the overall survival entry is reported as “potential benefit in overall survival” and the progression-free survival result is recorded as “improve progression-free survival”.

Values taken from patent US20220378776A1, “DRUG COMBINATION OF QUINOLINE DERIVATIVE AND PD-1 MONOCLONAL ANTIBODY” (CHIA TAI TIANQING PHARMACEUTICAL GROUP CO., LTD, priority 2019, published 2022).
